Patent US9029401B2 (The Regents of the University of California, priority 2011, dated 2015)
Where two headings read alike, the source gives them in different places.

Experiments:
Huh-7 hepatoma cell line = test: MTT cell viability assay, Huh-7; format: cell-based; details: Homo sapiens, read-out: EC50 on cell viability, Huh-7 (Liver)
Description: (§1) Cell-based assays were performed using the described cell lines, grown in the appropriate Growth Mediums containing 10% fetal bovine serum and 1% penicillin-streptomycin. Cancer cells were plated at 15,000 cells/well in 96-well plates and allowed to attach overnight. […] Cell viability was determined after 72 hours incubation periods. To determine anti-proliferative effects of inhibitors, cellular proliferation was determined using the colorimetric MTT cell viability assay kit, as described by the manufacture (ATCC).

HepG2 hepatoma cell line = test: MTT cell viability assay, HepG2; format: cell-based; details: for EC50: Homo sapiens, read-out: EC50 on cell viability, HepG2 (Liver)
Description: as §1

[1] = tested on: PC-3 prostate cancer cell line; test: MTT cell viability assay, PC-3; format: cell-based; details: read-out: EC50 on cell viability, PC-3 (Prostate)
Description: (§2) Cell-based assays were performed using the described cell lines, grown in the appropriate Growth Mediums containing 10% fetal bovine serum and 1% penicillin-streptomycin. Cancer cells were plated at 15,000 cells/well in 96-well plates and allowed to attach overnight. Inhibitors were dissolved in DMSO and then diluted to concentrations ranging from 0.1-25 μM with a final DMSO concentration of 0.1%. Cell viability was determined after 72 hours incubation periods. To determine anti-proliferative effects of inhibitors, cellular proliferation was determined using the colorimetric MTT cell viability assay kit, as described by the manufacture (ATCC).

[2] = tested on: ACHN renal cell carcinoma cell line; test: MTT cell viability assay, ACHN; format: cell-based; details: Homo sapiens, read-out: EC50 on cell viability, ACHN (Kidney)
Description: as §1

human sEH = human sEH (Homo sapiens (Human), UniProt P34913); test: Inhibitory activity against human sEH; format: biochemical; details: read-out: Human sEH IC50
human sEH, sequence (P34913 whole entry): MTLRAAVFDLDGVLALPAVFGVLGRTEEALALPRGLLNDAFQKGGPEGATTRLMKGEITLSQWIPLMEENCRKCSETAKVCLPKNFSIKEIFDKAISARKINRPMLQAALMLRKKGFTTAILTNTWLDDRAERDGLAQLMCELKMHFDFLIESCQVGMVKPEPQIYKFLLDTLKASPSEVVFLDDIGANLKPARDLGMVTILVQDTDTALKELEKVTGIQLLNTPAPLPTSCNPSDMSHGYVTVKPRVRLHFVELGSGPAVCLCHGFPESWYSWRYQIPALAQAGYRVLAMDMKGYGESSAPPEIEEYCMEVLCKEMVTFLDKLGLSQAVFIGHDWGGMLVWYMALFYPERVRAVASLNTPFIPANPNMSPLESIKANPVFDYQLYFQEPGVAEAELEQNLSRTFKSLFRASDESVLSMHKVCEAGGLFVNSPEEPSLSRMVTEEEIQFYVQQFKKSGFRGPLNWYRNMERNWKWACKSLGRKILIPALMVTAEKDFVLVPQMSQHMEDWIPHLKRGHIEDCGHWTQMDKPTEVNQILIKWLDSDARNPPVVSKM

[3] = tested on: SKBR3 breast cancer cell line; test: MTT cell viability assay, SKBR3; format: cell-based; details: Homo sapiens, read-out: EC50 on cell viability, SKBR3 (Breast)
Description: as §2

[4] = tested on: T47D breast cancer cell line; test: MTT cell viability assay, T47D; format: cell-based; details: Homo sapiens, 72 hours incubation
Description: as §2

Raf-1 = Raf-1 (Homo sapiens (Human), UniProt P04049); test: In vitro kinase inhibition assay (ADP-Glo), Raf-1; format: biochemical
Raf-1, sequence (P04049 whole entry): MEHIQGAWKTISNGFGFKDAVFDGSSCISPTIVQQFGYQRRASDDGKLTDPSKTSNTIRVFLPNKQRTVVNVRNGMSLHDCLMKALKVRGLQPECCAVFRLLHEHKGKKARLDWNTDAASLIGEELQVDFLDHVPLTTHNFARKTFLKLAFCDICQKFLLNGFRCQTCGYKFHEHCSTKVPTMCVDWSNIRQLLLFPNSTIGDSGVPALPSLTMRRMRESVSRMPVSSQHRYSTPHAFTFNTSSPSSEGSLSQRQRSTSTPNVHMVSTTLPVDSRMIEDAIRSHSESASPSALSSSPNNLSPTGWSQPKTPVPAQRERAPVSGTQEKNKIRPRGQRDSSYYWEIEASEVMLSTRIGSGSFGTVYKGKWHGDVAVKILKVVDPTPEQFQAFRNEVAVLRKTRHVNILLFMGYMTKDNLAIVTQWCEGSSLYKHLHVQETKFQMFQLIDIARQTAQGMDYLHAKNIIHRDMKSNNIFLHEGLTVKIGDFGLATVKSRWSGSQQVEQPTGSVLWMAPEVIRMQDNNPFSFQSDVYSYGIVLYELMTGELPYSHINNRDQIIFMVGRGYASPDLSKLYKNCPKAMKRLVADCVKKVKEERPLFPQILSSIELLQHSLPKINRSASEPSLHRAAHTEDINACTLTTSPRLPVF
Description: (§3) All measurements included background and control (vehicle only) luminescence readings.
(§4) The kinases Raf-1 and b-Raf (V600E), and their corresponding substrate, MEK1, and Full length recombinant CRAF kinase and its respective substrate, recombinant MEK1, were purchased from US Biological (Swampscott, Mass.). All assays were performed under identical conditions for the Raf isozymes: 10 nM Enzyme, 1 μM MEK1, 10 μM ATP, at 22° C. for 2 hours. […] IC50 values were obtained by determining the change in the ADP production (luminescence signal) at various inhibitor concentrations as compared to the control assay. Individual data sets were performed in duplicate and each IC50 was determined by the average and standard deviation of three separate experiments.
as §4, with “Full” for “The kinases Raf-1 and b-Raf (V600E), and their corresponding substrate, MEK1, and Full”, “at” for “under identical conditions for the Raf isozymes:”, “CRAF,” for “Enzyme,”, “(luminescent” for “(luminescence”, “mean” for “average”

[5] = Pharmacokinetics after cassette oral administration to mice; details: male, Swiss Webster, mouse, in vivo, 1 mg/kg
Description: Male Swiss Webster mice (10-week old, 30-35 g) were used for PK studies. […] Each blood sample was immediately transferred to a tube containing 50 μL of water containing 0.1% EDTA. After being mixed strongly on a Vortex for 1 min, all samples were stored at −80° C. until analysis. The extraction of sEHIs from blood was performed by a slight modification of a previous method. […] Torrance, Calif.) held at 50° C. […] The injection volume was 10 μL and the samples were kept at 4° C. in the auto sampler. Analytes were detected by negative mode electrospray ionizations tandem quadrupole trap mass spectrometry in multiple reaction-monitoring mode (MRM) on a Trap 4000 Mass Spectrometer (ABI, Milford, Mass.). The parameters of MS condition were the same as presented previously.

b-Raf (V600E) = b-Raf (V600E) (Homo sapiens (Human), UniProt P15056, V600E); test: In vitro kinase inhibition assay (ADP-Glo), b-Raf (V600E); format: biochemical
b-Raf (V600E), sequence (P15056 whole entry V600E): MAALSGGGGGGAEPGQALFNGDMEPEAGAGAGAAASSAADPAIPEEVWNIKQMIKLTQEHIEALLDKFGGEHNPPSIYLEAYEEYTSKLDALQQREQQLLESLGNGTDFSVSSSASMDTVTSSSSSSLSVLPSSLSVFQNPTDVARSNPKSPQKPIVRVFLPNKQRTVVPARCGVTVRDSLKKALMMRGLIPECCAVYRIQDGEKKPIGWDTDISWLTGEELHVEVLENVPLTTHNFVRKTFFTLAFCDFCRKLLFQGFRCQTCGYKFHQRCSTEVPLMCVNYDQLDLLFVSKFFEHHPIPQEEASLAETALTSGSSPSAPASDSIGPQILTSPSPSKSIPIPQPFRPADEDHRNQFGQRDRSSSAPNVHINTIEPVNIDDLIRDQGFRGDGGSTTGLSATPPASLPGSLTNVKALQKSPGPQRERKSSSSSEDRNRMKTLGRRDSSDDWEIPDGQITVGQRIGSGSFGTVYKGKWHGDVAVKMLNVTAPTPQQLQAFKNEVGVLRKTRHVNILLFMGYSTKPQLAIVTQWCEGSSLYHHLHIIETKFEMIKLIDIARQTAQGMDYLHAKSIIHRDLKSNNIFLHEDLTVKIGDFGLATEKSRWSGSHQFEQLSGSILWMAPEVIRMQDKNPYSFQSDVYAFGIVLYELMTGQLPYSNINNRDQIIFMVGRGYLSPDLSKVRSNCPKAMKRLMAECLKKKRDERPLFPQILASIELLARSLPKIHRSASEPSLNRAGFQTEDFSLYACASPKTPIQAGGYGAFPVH
Description: as §3, §4

[6] = Huh-7, MTT, 72 hours incubation
[7] = HepG2, MTT, 72 hours incubation
[8] = SK-BR-3, MTT, 72 hours incubation

Row | Compound | EC50 (Huh-7 hepatoma cell line; [6]) | EC50 (HepG2 hepatoma cell line; [7]) | EC50 ([1]; MTT, 72 hours incubation) | EC50 ([2]; MTT, 72 hours incubation) | IC50 (human sEH) | EC50 [3, 8] | EC50 [4] | also measured
1 | CNC(=O)c1ccc(O[C@H]2CC[C@H](NC(=O)NC34CC5CC(CC(C5)C3)C4)CC2)cc1 [Compound 2225, trans-4-[4-(3-adamantan-1-yl-ureido]-cyclohexyloxy)-N-methyl-benzamide] | 7 µM | 6 µM | 2 µM | 4.5 µM | 0.0005 µM | 7.5 µM | 4.5 µM | IC50 (Raf-1; 10 nM enzyme, 1 μM MEK1, 10 μM ATP, 22° C., 2 hours, read-out: Raf-1 IC50): > 10 µM
2 | CNC(=O)c1cc(O[C@H]2CC[C@H](NC(=O)Nc3ccc(Cl)c(C(F)(F)F)c3)CC2)ccn1 [Compound 2278, trans-4-{4-[3-(4-chloro-3-trifluoromethyl-phenyl)-ureido]-cyclohexyloxy}-pyridine-2-carboxylic acid methylamide] | 8 µM | 7 µM | 7 µM | 7.5 µM | 0.0005 µM | 8 µM | 5 µM | Effect on Hep G2 cell viability (dose dependence) (HepG2 hepatoma cell line; FIG. 2): more efficient than sunitinib; Effect on Hep G2 cell viability (comparison of inhibitors) (HepG2 hepatoma cell line; FIG. 3, at a concentration 2-fold smaller): more efficient than sunitinib; Effect on Hep G2 cell viability (dose dependence) (HepG2 hepatoma cell line; FIG. 4): more efficient than sunitinib; AUC(0-t) [5]: 3 µM·h; Cmax [5]: 190 nM; Tmax [5]: 1.7 h
3 | CNC(=O)c1ccc(O[C@H]2CC[C@H](NC(=O)Nc3ccc(OC(F)(F)F)cc3)CC2)cc1 [Compound 2227, trans-N-Methyl-4-{4-[3-(4-trifluoromethoxy-phenyl)-ureido]-cyclohexyloxy}-benzamide] | – | – | – | – | – | – | > 25 µM | EC50 (Huh-7 hepatoma cell line; Huh-7, 72 h): 5.5 µM; EC50 (HepG2 hepatoma cell line; HepG2, 72 h): 7 µM; EC50 ([1]; 72 h): 10 µM; EC50 ([2]; 72 h): 6.5 µM; IC50 (b-Raf (V600E)): > 10 µM; EC50 ([3]; SK-BR-3, 72 h): > 25 µM; IC50 (Raf-1): 0.34 ± 0.04 µM
